“Also recorded” adds a separate entry of the source.
Experiments:
[1] = tested on: Human hepatic stellate cell line LX-2; assay: Inhibition of TGF-β-induced hepatic stellate cell activation (α-SMA, fibronectin by Western Blot); type: cell-based; details: LX-2, 10 ng/mL TGF-β plus compound for 24 hours; for inhibition of the activation of hepatic stellate cells HSC: α-SMA and fibronectin by Western Blot
From the text: Human hepatic stellate cell line LX-2 was used in cell function experiments. […] By comparing the expression levels of extracellular matrix in the TGF-β group and the cell group in which TGF-β and the compound to be tested were both added at the same time, the efficacy of the compound in alleviating liver fibrosis through hepatic stellate cells was characterized.
The cell experiment procedure was as follows. The human hepatic stellate cell line LX-2 was selected and inoculated into the treated 24-well plate at 7.5×10^4/well. After the cells were adhered overnight and they were subjected to starvation treatment for 12 hours, the cells were treated with 10 ng/mL TGF-β and the corresponding test compound for 24 hours and then protein samples were collected. The expression of extracellular matrix represented by α-smooth muscle myofilament (α-SMA) and fibronectin was detected by Western Blot.

[2] = tested on: CCl4 induced liver fibrosis model mice; assay: CCl4 induced liver fibrosis model mice, long-term oral administration (Example 4); type: in vivo; details: for serum ALT level / serum AST level: 20 and 60 mg/kg oral gavage twice a day
Method: In this experiment, CCl4 induced liver fibrosis model mice were used to investigate the effect of long-term oral administration of compound DC291407 on liver fibrosis in the model mice.
Animal experiment: Male C57BL/6j mice were injected intraperitoneally with 2 mL/kg, 10% CCl4 (dissolved in olive oil) three times a week to induce liver fibrosis model. Two weeks after modeling, the blood was taken from the retro-ocular venous plexus of the mice, and serum ALT and AST indexes were detected. According to ALT, AST, body weight and other indexes, the mice were randomly divided into 5 groups, each with 10 mice. There were the model control group (vehicle), DC291407 low-dose group (20 mg/kg), DC291407 high-dose group (60 mg/kg), positive compound OCA low-dose group (20 mg/kg), OCA high-dose group (40 mg/kg), respectively, and mice were administered by oral gavage. DC291407 was administered twice a day, and the other groups were administered once a day. During the administration period, the animals' food intake and body weight were monitored. After 3 weeks of administration, the blood was taken from the retro-ocular venous plexus of the mice, and serum ALT and AST indexes were detected. After 6 weeks of administration, the blood was taken from the retro-ocular venous plexus of the mice and then the mice were killed by dislocation. The liver was taken and weighed, part of the liver was fixed with 4% paraformaldehyde, and part of the liver was frozen at −80° C. During the whole experiment, another 10 mice in the same cage were injected intraperitoneally with the same dose of olive oil as a normal control group (WT). This experiment reflected whether the compound had the effect of relieving liver fibrosis by detecting the levels of liver function indexes ALT and AST in serum, the expression of α-SMA and Col1α1 gene levels in the liver, the content of hydroxyproline (a characteristic amino acid of collagen) in the liver, and liver pathological changes (Sirius scarlet staining) and the like.

[3] = tested on: NAFLD model of ob/ob mice induced by high-fat diet; assay: NAFLD model of ob/ob mice induced by high-fat diet (Example 5); type: in vivo; details: 8 weeks
Method: In this experiment, the NAFLD model of ob/ob mice induced by high-fat diet was used to investigate the treatment effect of long-term oral administration of compound DC291407 on NAFLD.
Animal experiment: ob/ob obese mice were divided into 3 groups according to random blood glucose, random body weight, fasting blood glucose, and fasting body weight at the 8th week of age, with 9 mice in each group. There were the model control group (vehicle) and the DC291407 group (20 mg/kg), the positive compound Alogliptin group (20 mg/kg), respectively and mice were administered by oral gavage, twice a day. A group of 6 normal mice in the same cage was set up as a normal control group (WT). Except for the WT group, they were fed with normal feed, and the rest groups were fed with high-fat feed. The administration was continued for 8 weeks. During the administration, the animal's food intake and body weight were monitored. After the last administration, the animals were fasted for 6 hours and allowed to drink water freely. Then the body weight was measured, the blood was collected from the retro-ocular venous plexus, and liver was dissected. Part of the liver was placed in 4% paraformaldehyde, and the rest was stored in a refrigerator at −80° C. This experiment reflected whether the compound had the treating effect on NAFLD by detecting the levels of liver function indexes ALT and AST in the serum, the contents of TC and TG in the liver, the NAS score of liver pathology (HE staining) and the like.

[4] = tested on: CCl4-induced liver fibrosis model mice; assay: CCl4-induced liver fibrosis model mice, multiple doses, comparison with sitagliptin (Example 6); type: in vivo; details: oral gavage twice a day, 6 weeks
Method: In this experiment, CCl4-induced liver fibrosis model mice were used to investigate the effect of long-term oral administration of compound DC291407 under multiple doses on liver fibrosis in the model mice, and comparison was conducted with the same dose of sitagliptin.
Animal experiment: Male C57BL/6j mice were injected intraperitoneally with 2 mL/kg, 10% CCl4 (dissolved in olive oil) three times a week to induce liver fibrosis model. Two weeks after modeling, the blood was taken from the retro-ocular venous plexus of the mice, and serum ALT and AST indexes were detected. According to ALT, AST, body weight and other indexes, the mice were randomly divided into 8 groups with 10 mice in each group. There were the models control group (vehicle), DC291407 low-dose group (6 mg/kg), DC291407 middle-dose group (20 mg/kg), DC291407 high-dose group (60 mg/kg), sitagliptin low-dose group (6 mg/kg), Sitagliptin middle-dose group (20 mg/kg), sitagliptin high-dose group (60 mg/kg) and system positive compound OCA group (20 mg/kg). The mice were administered by oral gavage. The OCA group was administered once a day, and the other groups were administered twice a day. During the administration period, the animals' food intake and body weight were monitored. After 3 weeks of administration, the blood was taken from the retro-ocular venous plexus of the mice, and serum ALT and AST indexes were detected. After 6 weeks of administration, the blood was taken from the retro-ocular venous plexus of the mice and then the mice were killed by dislocation. The liver was taken and weighed, part of the liver was fixed with 4% paraformaldehyde, and part of the liver was frozen at −80° C. During the whole experiment, another 10 mice in the same cage were injected intraperitoneally with the same dose of olive oil as a normal control group (WT). This experiment reflected whether the compound had the effect of relieving liver fibrosis by detecting the levels of liver function indexes ALT and AST in serum, the content of hydroxyproline (a characteristic amino acid of collagen) in the liver, and liver pathological changes (Sirius scarlet staining) and the like.

[5] = after 3 weeks of administration
[6] = after 6 weeks of administration
[7] = 20 mg/kg oral gavage twice a day

Q: How did the “inhibitory activity on HSC activation compared with positive control Alogliptin” value [1] turn out when `COC(=O)c1cc2nc(N3CCC[C@@H](N)C3)n(Cc3ccccc3C#N)c(=O)c2s1` [DC291407, (R)-methyl-2-(3-aminopiperidin-1-yl)-3-(2-cyanobenzyl)-4-carbonyl-3,4-dihydrothieno[3,2-d]pyrimidine-6 carboxylic acid] was run?
A: better than that of the positive control Alogliptin

Q: And the “inhibition of the activation of hepatic stellate cells HSC” value [1]?
A: concentration-dependently inhibited; also recorded: had an inhibitory effect

Q: And the “serum ALT level” value [2, 5]?
A: no decrease

Q: What about the “serum AST level” value [2, 5] of the same molecule?
A: no decrease

Q: What about the “collagen content in the liver (Sirius scarlet stained pathological sections, quantitative analysis)” value [2, 6] of the same molecule?
A: reduce the collagen content in the liver without statistical difference

Q: And the “content of hydroxyproline in liver tissues” value [2, 6]?
A: reduced

Q: What about the “expression of Col1α1 mRNA in liver tissues” value [2, 6] of the same molecule?
A: significantly down-regulated

Q: And the “expression of α-SMA mRNA in liver tissues” value [2, 6]?
A: significantly down-regulated

Q: And the “serum ALT level” value [2, 6]?
A: significantly reduced

Q: And the “serum AST level” value [2, 6]?
A: significantly reduced

Q: What about the “effect on serum ALT, AST and liver TG compared with alogliptin” value ([3]; 20 mg/kg each, twice a day) of the same molecule?
A: equivalent to that of alogliptin

Q: And the “effect on steatosis compared with alogliptin” value ([3]; 20 mg/kg each, twice a day)?
A: better than that of alogliptin

Q: What about the “overall improvement effect on NAS score compared with alogliptin” value ([3]; 20 mg/kg each, twice a day) of the same molecule?
A: equivalent to that of alogliptin

Q: And the “content of TG in liver tissue” value [3, 7]?
A: significantly reduce

Q: What about the “level of ALT in serum” value [3, 7] of the same molecule?
A: significantly reduce

Q: And the “level of AST in serum” value [3, 7]?
A: significantly reduce

Q: And the “lobular inflammation (NAS score, HE stained liver sections)” value [3, 7]?
A: a certain alleviating effect

Q: What about the “steatosis (NAS score, HE stained liver sections)” value [3, 7] of the same molecule?
A: improve steatosis

Q: What about the “ALT level in serum” value ([4]; high-dose group 60 mg/kg) of the same molecule?
A: significantly reduce

Q: What about the “collagen content in the liver (Sirius scarlet stained sections, quantitative analysis)” value ([4]; high-dose group 60 mg/kg) of the same molecule?
A: reduce the collagen content in the liver without dose dependence

Q: What about the “ALT level in serum” value ([4]; low-dose group 6 mg/kg) of the same molecule?
A: significantly reduce

Q: What about the “AST level in serum” value ([4]; low-dose group 6 mg/kg) of the same molecule?
A: significantly reduce

Q: And the “collagen content in the liver (Sirius scarlet stained sections, quantitative analysis)” value ([4]; low-dose group 6 mg/kg)?
A: reduce the collagen content in the liver without dose dependence

Q: What about the “content of hydroxyproline in liver tissues” value ([4]; low-dose group 6 mg/kg) of the same molecule?
A: reduced the content of hydroxyproline in liver tissues without statistics significance

Q: And the “ALT level in serum” value ([4]; middle-dose group 20 mg/kg)?
A: significantly reduce

Q: And the “AST level in serum” value ([4]; middle-dose group 20 mg/kg)?
A: significantly reduce

Q: What about the “collagen content in the liver (Sirius scarlet stained sections, quantitative analysis)” value ([4]; middle-dose group 20 mg/kg) of the same molecule?
A: reduce the collagen content in the liver without dose dependence

Q: For `N#Cc1ccccc1Cn1c(N2CCC[C@@H](N)C2)nc2cc(C(=O)O)sc2c1=O` [DC291410, (R)-2-(3-aminopiperidin-1-yl)-3-(2-cyanobenzyl)-4-carbonyl-3,4-dihydrothieno[3,2-d]pyrimidine-6 carboxylic acid], which “inhibitory activity on HSC activation compared with positive control Alogliptin” value [1] is on record?
A: better than that of the positive control Alogliptin

Q: What about the “inhibition of the activation of hepatic stellate cells HSC” value [1] of the same molecule?
A: concentration-dependently inhibited

Q: For `N[C@@H](CC(=O)N1CCn2c(nnc2C(F)(F)F)C1)Cc1cc(F)c(F)cc1F` [sitagliptin, reference compound], which “ALT level in serum” value ([4]; high-dose group 60 mg/kg) is on record?
A: significantly reduced

Q: And the “AST level in serum” value ([4]; high-dose group 60 mg/kg)?
A: significantly reduced

Q: What about the “ALT level in serum” value ([4]; low-dose group 6 mg/kg) of the same molecule?
A: no effect

Q: What about the “AST level in serum” value ([4]; low-dose group 6 mg/kg) of the same molecule?
A: no effect

Q: What about the “collagen content in the liver (Sirius scarlet stained sections, quantitative analysis)” value ([4]; low-dose group 6 mg/kg) of the same molecule?
A: significantly reduce the collagen content in the liver

Q: What about the “AST level in serum” value ([4]; middle-dose group 20 mg/kg) of the same molecule?
A: significantly reduced

Reference: patent US11730742B2, “Pharmaceutical use of thiophene [3,2-d] pyrimidine-4-ketone compound” (SHANGHAI INSTITUTE OF MATERIA MEDICA, CHINESE ACADEMY OF …, priority 2018, dated 2023)
